The test system of this data set is rodent lifetime carcinogenesis bioassay, tumor incidence TD50. Briefly: chronic cancer bioassays in animals – CPDB, compiled studies (AID 1745844).
The mark [1] stands for this setting: mouse, strain B6AKF1, females, oral dosing, site: any site (literature study), lesion: several types, types named in the paper, dosed 76 weeks, study length 76 weeks.
Setting [2] is: mouse, strain B6AKF1, females, oral dosing, site: lung, lesion: adenoma, dosed 76 weeks, study length 76 weeks.
[3] abbreviates: mouse, strain B6C3F1, males, oral dosing, site: any site (literature study), lesion: several types, types named in the paper, dosed 76 weeks, study length 76 weeks.
[4] abbreviates: mouse, strain B6C3F1, males, oral dosing, site: liver, lesion: hepatoma, dosed 76 weeks, study length 76 weeks.
[5] abbreviates: mouse, strain B6C3F1, males, oral dosing, site: lung, lesion: adenoma, dosed 76 weeks, study length 76 weeks.

Activity calls are given as the source filed them. The rule behind the calls is not given here.

What is called TD50 is the dose at which the toxic effect under study appears in half of the subjects.

For the molecule `S=C([S-])NCCNC(=S)[S-].[Mn+2]`, the TD50 is 138 mg/kg/day (inactive) under setting [1]; 106 mg/kg/day (inactive) (mouse, strain B6AKF1, males, oral dosing, site: any site (literature study), lesion: several types, types named in the paper, dosed 76 weeks, study length 76 weeks); 54.9 mg/kg/day (inactive) (mouse, strain B6AKF1, males, oral dosing, site: lung, lesion: adenoma, dosed 76 weeks, study length 76 weeks); 62.3 mg/kg/day (inactive) under setting [3]; 128 mg/kg/day (inactive) under setting [4]; 128 mg/kg/day (inactive) under setting [5]. Further, the TD50 (rat, strain Mongrel, both sexes, by gavage, site: any site (literature study), lesion: several types, types named in the paper, dosed 95 weeks, study length 104 weeks) is 157 mg/kg/day. In addition, the carcinogen call was “negative (inactive)” (mouse, strain B6AKF1, females, oral dosing, site: liver, lesion: hepatoma, dosed 76 weeks, study length 76 weeks); “negative (inactive)” under setting [2]; “negative (inactive)” (mouse, strain B6AKF1, males, oral dosing, site: liver, lesion: hepatoma, dosed 76 weeks, study length 76 weeks); “negative (inactive)” (mouse, strain B6C3F1, females, oral dosing, site: any site (literature study), lesion: one or several types, types not named, dosed 76 weeks, study length 76 weeks); “negative (inactive)” (mouse, strain B6C3F1, females, oral dosing, site: liver, lesion: hepatoma, dosed 76 weeks, study length 76 weeks); “negative (inactive)” (mouse, strain B6C3F1, females, oral dosing, site: lung, lesion: several types, types named in the paper, dosed 76 weeks, study length 76 weeks).

With `C[C@H](CCc1ccccc1)NC[C@H](O)c1ccc(O)c(C(N)=O)c1`, the carcinogen call is “negative (inactive)” (rat, strain Sprague-Dawley, females, in feed, site: heart, lesion: endocardial sarcoma, dosed 104 weeks, study length 104 weeks) and “negative (inactive)” (rat, strain Sprague-Dawley, males, in feed, site: heart, lesion: endocardial sarcoma, dosed 104 weeks, study length 104 weeks).

Consider `Cc1cccc(OCC(O)CNC(C)(C)C)c1C` (configuration not stated), for which the carcinogen call is “negative (inactive)” (mouse, strain B6C3F1, females, in feed, site: any site (literature study), lesion: several types, types named in the paper, dosed 82 weeks, study length 92 weeks); “negative (inactive)” (mouse, strain B6C3F1, females, in feed, site: liver, lesion: several types, types named in the paper, dosed 82 weeks, study length 92 weeks); “negative (inactive)” (mouse, strain B6C3F1, females, in feed, site: lung, lesion: several types, types named in the paper, dosed 82 weeks, study length 92 weeks); “negative (inactive)” (mouse, strain B6C3F1, males, in feed, site: liver, lesion: several types, types named in the paper, dosed 82 weeks, study length 92 weeks). Further, the TD50 by setting is: (mouse, strain B6C3F1, males, in feed, site: any site (literature study), lesion: several types, types named in the paper, dosed 82 weeks, study length 92 weeks) 618 mg/kg/day (inactive); (mouse, strain B6C3F1, males, in feed, site: lung, lesion: several types, types named in the paper, dosed 82 weeks, study length 92 weeks) 1730 mg/kg/day (inactive).

`Nc1cc(S(=O)(=O)[O-])cc2cc(S(=O)(=O)[O-])c(N=Nc3ccc(-c4ccc(N=Nc5c(S(=O)(=O)[O-])cc6cc(S(=O)(=O)[O-])cc(N)c6c5O)c(O)c4)cc3O)c(O)c12.[Cu].[Cu].[Na+].[Na+].[Na+].[Na+]`: the TD50 by setting is: (mouse, strain B6C3F1, females, in feed, site: any site (literature study), lesion: several types, types named in the paper, dosed 103 weeks, study length 106 weeks) 1530 mg/kg/day; (mouse, strain B6C3F1, females, in feed, site: liver, lesion: hepatoblastoma + hepatocellular carcinoma, dosed 103 weeks, study length 106 weeks) 4000 mg/kg/day; (mouse, strain B6C3F1, females, in feed, site: liver, lesion: hepatocellular adenoma + hepatoblastoma + hepatocellular carcinoma, dosed 103 weeks, study length 106 weeks) 711 mg/kg/day; (mouse, strain B6C3F1, females, in feed, site: liver, lesion: hepatocellular adenoma + hepatocellular carcinoma, dosed 103 weeks, study length 106 weeks) 711 mg/kg/day; (mouse, strain B6C3F1, females, in feed, site: liver, lesion: hepatocellular adenoma, dosed 103 weeks, study length 106 weeks) 774 mg/kg/day; (mouse, strain B6C3F1, females, in feed, site: liver, lesion: hepatocellular carcinoma, dosed 103 weeks, study length 106 weeks) 4570 mg/kg/day. Moreover, the TD50 reads like this: (mouse, strain B6C3F1, males, in feed, site: any site (literature study), lesion: several types, types named in the paper, dosed 103 weeks, study length 105 weeks) 1910 mg/kg/day; (mouse, strain B6C3F1, males, in feed, site: jejunum, lesion: carcinoma, dosed 103 weeks, study length 105 weeks) 20300 mg/kg/day; (mouse, strain B6C3F1, males, in feed, site: kidney, lesion: tubule adenoma, dosed 103 weeks, study length 105 weeks) 195000 mg/kg/day; (mouse, strain B6C3F1, males, in feed, site: liver, lesion: hepatocellular adenoma + hepatoblastoma + hepatocellular carcinoma, dosed 103 weeks, study length 105 weeks) 1080 mg/kg/day; (mouse, strain B6C3F1, males, in feed, site: liver, lesion: hepatocellular adenoma + hepatocellular carcinoma, dosed 103 weeks, study length 105 weeks) 1080 mg/kg/day; (mouse, strain B6C3F1, males, in feed, site: liver, lesion: hepatocellular adenoma, dosed 103 weeks, study length 105 weeks) 1210 mg/kg/day. The TD50 is 2990 mg/kg/day (mouse, strain B6C3F1, males, in feed, site: liver, lesion: hepatocellular carcinoma, dosed 103 weeks, study length 105 weeks); 653 mg/kg/day (rat, strain Fischer 344, females, in feed, site: any site (literature study), lesion: several types, types named in the paper, dosed 103 weeks, study length 104 weeks); 83.5 mg/kg/day (inactive) (rat, strain Fischer 344, females, in feed, site: uterus, lesion: endometrial stromal polyp, dosed 103 weeks, study length 104 weeks); 921 mg/kg/day (rat, strain Fischer 344, males, in feed, site: any site (literature study), lesion: several types, types named in the paper, dosed 103 weeks, study length 104 weeks); 2350 mg/kg/day (rat, strain Fischer 344, males, in feed, site: forestomach, lesion: squamous-cell carcinoma + squamous-cell papilloma, dosed 103 weeks, study length 104 weeks); 3140 mg/kg/day (rat, strain Fischer 344, males, in feed, site: forestomach, lesion: squamous-cell papilloma, dosed 103 weeks, study length 104 weeks). For the same molecule, the TD50 (rat, strain Fischer 344, males, in feed, site: liver, lesion: hepatocellular adenoma + hepatoblastoma + hepatocellular carcinoma, dosed 103 weeks, study length 104 weeks) amounted to 5050 mg/kg/day; the TD50 (rat, strain Fischer 344, males, in feed, site: palate, lesion: basosquamous tumor, benign + squamous-cell carcinoma + squamous-cell papilloma, dosed 103 weeks, study length 104 weeks) worked out at 1380 mg/kg/day; the TD50 (rat, strain Fischer 344, males, in feed, site: palate, lesion: basosquamous tumor, benign, dosed 103 weeks, study length 104 weeks) was 11500 mg/kg/day; the TD50 (rat, strain Fischer 344, males, in feed, site: palate, lesion: squamous-cell carcinoma + squamous-cell papilloma, dosed 103 weeks, study length 104 weeks) was 1570 mg/kg/day; the TD50 (rat, strain Fischer 344, males, in feed, site: palate, lesion: squamous-cell carcinoma, dosed 103 weeks, study length 104 weeks) is 9510 mg/kg/day; the TD50 (rat, strain Fischer 344, males, in feed, site: palate, lesion: squamous-cell papilloma, dosed 103 weeks, study length 104 weeks) was 1920 mg/kg/day. In addition, the carcinogen call by setting is: (mouse, strain B6C3F1, males, in feed, site: kidney, lesion: tubule adenoma + tubule carcinoma, dosed 103 weeks, study length 105 weeks) “e”; (mouse, strain B6C3F1, males, in feed, site: kidney, lesion: tubule carcinoma, dosed 103 weeks, study length 105 weeks) “e”; (rat, strain Fischer 344, males, in feed, site: forestomach, lesion: squamous-cell carcinoma, dosed 103 weeks, study length 104 weeks) “e”.

`O=NN(c1ccccc1)c1ccccc1`: the TD50 under setting [1] was determined as 3260 mg/kg/day; the TD50 under setting [2] worked out at 1020 mg/kg/day; the TD50 under setting [3] stood at 897 mg/kg/day; the TD50 under setting [4] was 385 mg/kg/day; the TD50 under setting [5] was determined as 9670 mg/kg/day; the TD50 (rat, strain CB, males, i.p., site: liver, lesion: hepatoma, dosed 26 weeks, study length 100 weeks) was 18.9 mg/kg/day (inactive). The TD50 is 159 mg/kg/day (rat, strain Fischer 344, females, in feed, site: any site (literature study), lesion: several types, types named in the paper, dosed 100 weeks, study length 100 weeks); 116 mg/kg/day (rat, strain Fischer 344, females, in feed, site: urinary bladder, lesion: transitional-cell carcinoma, dosed 100 weeks, study length 100 weeks); 537 mg/kg/day (rat, strain Fischer 344, males, in feed, site: all sites, lesion: fibroma, dosed 100 weeks, study length 100 weeks); 136000 mg/kg/day (rat, strain Fischer 344, males, in feed, site: any site (literature study), lesion: several types, types named in the paper, dosed 100 weeks, study length 100 weeks); 5450 mg/kg/day (rat, strain Fischer 344, males, in feed, site: liver, lesion: hepatocellular adenoma + hepatocellular carcinoma + neoplastic nodule, dosed 100 weeks, study length 100 weeks); 299 mg/kg/day (rat, strain Fischer 344, males, in feed, site: urinary bladder, lesion: transitional-cell carcinoma, dosed 100 weeks, study length 100 weeks). The carcinogen call (mouse, strain B6C3F1, females, in feed, site: any site (literature study), lesion: several types, types named in the paper, dosed 98 weeks, study length 101 weeks) is “negative (inactive)” and the carcinogen call (mouse, strain B6C3F1, males, in feed, site: any site (literature study), lesion: several types, types named in the paper, dosed 101 weeks, study length 101 weeks) is “negative (inactive)”.

Regarding `Cc1c(N(C)C)c(=O)n(-c2ccccc2)n1C`, the carcinogen call by setting is: (mouse, strain B6C3F1, females, in drinking water, site: any site (literature study), lesion: one or several types, types not named, dosed 100 weeks, study length 104 weeks) “negative (inactive)”; (mouse, strain B6C3F1, females, in drinking water, site: liver, lesion: hepatocellular carcinoma, dosed 100 weeks, study length 104 weeks) “negative (inactive)”; (mouse, strain B6C3F1, females, in drinking water, site: lung, lesion: alveolar/bronchiolar adenoma, dosed 100 weeks, study length 104 weeks) “negative (inactive)”; (mouse, strain B6C3F1, males, in drinking water, site: lung, lesion: alveolar/bronchiolar carcinoma, dosed 100 weeks, study length 104 weeks) “negative (inactive)”. Moreover, the TD50 was 6150 mg/kg/day (inactive) (mouse, strain B6C3F1, females, in drinking water, site: liver, lesion: hepatocellular adenoma, dosed 100 weeks, study length 104 weeks); 6540 mg/kg/day (inactive) (mouse, strain B6C3F1, females, in drinking water, site: lung, lesion: alveolar/bronchiolar carcinoma, dosed 100 weeks, study length 104 weeks); 156 mg/kg/day (inactive) (mouse, strain B6C3F1, males, in drinking water, site: any site (literature study), lesion: one or several types, types not named, dosed 100 weeks, study length 104 weeks); 683 mg/kg/day (inactive) (mouse, strain B6C3F1, males, in drinking water, site: liver, lesion: hepatocellular adenoma, dosed 100 weeks, study length 104 weeks); 5390 mg/kg/day (inactive) (mouse, strain B6C3F1, males, in drinking water, site: liver, lesion: hepatocellular carcinoma, dosed 100 weeks, study length 104 weeks); 1480 mg/kg/day (inactive) (mouse, strain B6C3F1, males, in drinking water, site: lung, lesion: alveolar/bronchiolar adenoma, dosed 100 weeks, study length 104 weeks).

(Values after PubChem BioAssay AID1745844 (Carcinogenic Potency Database (CPDB), 2022).)
